Among the test systems are A498; ACHN; BT-549; CCRF-CEM; HCT-116; KM12; LOX IMVI; MCF7; MDA-MB-231; MDA-MB-435; MDA-N; MOLT-4; NCI-H226; NCI-H460; OVCAR-5; SK-MEL-2; SN12C; SNB-19; SR; U-251.
Common to all, as to assay: NCI-60 cell line screen, 48 h

The source of these data is ChEMBL document CHEMBL1201862, “PubChem BioAssay data set” (2004).

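Five compound concentrations were applied to cells in 96-well plates for 48 hours; endpoints were derived by simple linear interpolation of the resulting dose-response curve. GI50 = concentration required for 50% inhibition of growth.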 Calls of active or inactive are those of the source. Rule as the data show it: active = GI50 up to about 1.1 µM and inactive = higher. Some results are limits rather than exact numbers.

Regarding `Cn1c(=O)c2nc(CS(=O)(=O)Cc3nc4c(=O)n(C)c(=O)n(C)c4[nH]3)[nH]c2n(C)c1=O`, the GI50 with A498, in the experiment with ACHN, in the experiment on BT-549, with CCRF-CEM, in the experiment with HCT-116 and with KM12 was > 100 µM (inactive) in each case. Besides, the GI50 with LOX IMVI is > 100 µM (inactive); with MCF7, 28.1 µM (inactive); in the experiment with MDA-MB-231 it was 40.6 µM (inactive); in the experiment on MDA-MB-435, > 100 µM (inactive); with MDA-N, > 100 µM (inactive); in the experiment with MOLT-4, > 100 µM (inactive). The GI50 in the experiment on NCI-H226, in the experiment with NCI-H460, in the experiment on OVCAR-5, in the experiment on SK-MEL-2, in the experiment on SN12C and with SNB-19 was > 100 µM (inactive) each time. In addition, the GI50 with SR is > 100 µM (inactive); in the experiment with U-251, 33.2 µM (inactive).

`C=C1CC[C@H](O)C(C)(C)[C@@H]1CC/C(C)=C/CC/C=C(\C)CC/C=C(\C)CCC=C(C)C`: the GI50 with A498 was > 100 µM (inactive); in the experiment with ACHN, > 100 µM (inactive); with BT-549 it was > 100 µM (inactive); in the experiment on CCRF-CEM, 1.82 µM (inactive); in the experiment on HCT-116, 43.7 µM (inactive); in the experiment with KM12 it was > 100 µM (inactive). Also, the GI50 was > 100 µM (inactive) in the experiment on LOX IMVI; 27.6 µM (inactive) in the experiment on MCF7; > 100 µM (inactive) with MDA-MB-231; > 100 µM (inactive) in the experiment with MDA-MB-435; > 100 µM (inactive) with MDA-N; > 100 µM (inactive) in the experiment on MOLT-4. The GI50 in the experiment with NCI-H226 is 69.2 µM (inactive); with NCI-H460 it was > 100 µM (inactive); in the experiment with OVCAR-5, > 100 µM (inactive); in the experiment with SK-MEL-2, 46.7 µM (inactive); with SN12C it was 66.2 µM (inactive); in the experiment with SNB-19, > 100 µM (inactive). For the same compound, the GI50 in the experiment on SR is 59.6 µM (inactive); in the experiment on U-251 it was > 100 µM (inactive).

With `CCC(C)C1NC(=O)C(NC(=O)c2c3nc4c(C(=O)NC5C(=O)NC(C(C)CC)C(=O)N6CCCC6C(=O)N(C)CC(=O)N(C)C(C(C)C)C(=O)OC5C)ccc(C)c4oc-3c(C)c(=O)c2O)C(C)OC(=O)C(C(C)C)N(C)C(=O)CN(C)C(=O)C2CCCN2C1=O` (stereo not given), the GI50 is 2.84 µM (inactive) in the experiment on A498; 4.89 µM (inactive) in the experiment with ACHN; 5.81 µM (inactive) with BT-549; 0.499 µM (active) in the experiment on CCRF-CEM; 0.55 µM (active) in the experiment on HCT-116; 1.63 µM (inactive) in the experiment on KM12. Also, the GI50 with LOX IMVI is 0.532 µM (active); in the experiment with MCF7, 1.11 µM (active); in the experiment with MDA-MB-231, 1.25 µM (inactive); with MDA-MB-435, 4.92 µM (inactive); in the experiment with MDA-N it was 4.21 µM (inactive); with MOLT-4 it was 1.01 µM (active). In addition, the GI50 is 0.881 µM (active) in the experiment on NCI-H226; 0.174 µM (active) in the experiment with NCI-H460; 11.6 µM (inactive) in the experiment with OVCAR-5; 2.07 µM (inactive) with SK-MEL-2; 1.17 µM (inactive) with SN12C; 11.5 µM (inactive) in the experiment with SNB-19. Further, the GI50 in the experiment on SR is 0.119 µM (active); with U-251, 1.05 µM (active).

With `Cc1ccc2c(c1)C(=O)c1[nH]c3ccc(F)cc3c1CO2`, the GI50 was 79.4 µM (inactive) with A498; 28.6 µM (inactive) with ACHN; 31.1 µM (inactive) with BT-549; > 100 µM (inactive) with CCRF-CEM; 17.8 µM (inactive) in the experiment with HCT-116; > 100 µM (inactive) in the experiment with KM12. For the same compound, the GI50 is 21.5 µM (inactive) in the experiment with LOX IMVI; > 100 µM (inactive) in the experiment on MCF7; > 100 µM (inactive) in the experiment on MDA-MB-231; 58.9 µM (inactive) with MDA-MB-435; > 100 µM (inactive) in the experiment with MDA-N; 58.2 µM (inactive) in the experiment on MOLT-4. In addition, the GI50 in the experiment with NCI-H226 is 31.8 µM (inactive); in the experiment on NCI-H460, 33.9 µM (inactive); in the experiment with OVCAR-5, > 100 µM (inactive); with SK-MEL-2 it was 12.1 µM (inactive); in the experiment with SN12C it was > 100 µM (inactive); in the experiment with SNB-19, 14.3 µM (inactive). Also, the figures for the GI50 with SR and in the experiment with U-251 were 49.8 µM (inactive) and 18.5 µM (inactive), respectively.

Turning to `C/C=C/C(CC(O)(C(F)(F)F)C(F)(F)F)=N/NC(N)=S`, the GI50 in the experiment on A498, in the experiment on ACHN, in the experiment on BT-549, with CCRF-CEM, in the experiment on HCT-116 and in the experiment on KM12 was > 10 µM (inactive) in each case. The GI50 with LOX IMVI, in the experiment with MCF7, in the experiment with MDA-MB-231, with MDA-MB-435, in the experiment on MDA-N and with MOLT-4 was > 10 µM (inactive) each time. Also, the GI50 in the experiment with NCI-H226, in the experiment on NCI-H460, with OVCAR-5, with SK-MEL-2, in the experiment on SN12C and with SNB-19 was > 10 µM (inactive) in each case. Further, the GI50 with SR and in the experiment on U-251 was > 10 µM (inactive) each time.

On to `C=C(C)[C@@H](O)[C@H](O)C[C@H](C)C1CC[C@]2(C)C1=CC[C@@H]1[C@@]3(C)CC[C@@H](OC(C)=O)C(C)(C)[C@@H]3C[C@@H](OC3OC(COC(C)=O)C(O)C(O)C3O)[C@]12C` (stereo not given in full), for which the GI50 with A498 is 3.36 µM (inactive); in the experiment with ACHN, 2.44 µM (inactive); in the experiment on BT-549, 3.33 µM (inactive); in the experiment with CCRF-CEM it was 2.29 µM (inactive); with HCT-116 it was 2.27 µM (inactive); in the experiment with KM12 it was 1.6 µM (inactive). The GI50 in the experiment on LOX IMVI was 1.73 µM (inactive); in the experiment with MCF7, 2.96 µM (inactive); in the experiment on MDA-MB-231 it was 2.21 µM (inactive); in the experiment with MDA-MB-435, 2 µM (inactive); in the experiment on MDA-N, 2.81 µM (inactive); in the experiment on MOLT-4 it was 2.17 µM (inactive). Also, the GI50 in the experiment with NCI-H226 is 3.05 µM (inactive); with NCI-H460, 2.45 µM (inactive); in the experiment with OVCAR-5, 1.87 µM (inactive); with SK-MEL-2, 1.77 µM (inactive); in the experiment with SN12C, 3.21 µM (inactive); with SNB-19 it was 3.71 µM (inactive). The GI50 in the experiment with SR is 1.99 µM (inactive); in the experiment with U-251 it was 2.32 µM (inactive).

In the case of `CN(N)C(=O)NCCCl`, the GI50 with A498, in the experiment on ACHN, in the experiment with BT-549, in the experiment on CCRF-CEM, in the experiment on HCT-116 and in the experiment with KM12 was > 100 µM (inactive) each time. Further, the GI50 in the experiment with LOX IMVI is > 100 µM (inactive); in the experiment with MCF7 it was > 100 µM (inactive); in the experiment on MDA-MB-231, 1.3 µM (inactive); in the experiment with MDA-MB-435 it was > 100 µM (inactive); in the experiment on MDA-N it was > 100 µM (inactive); with MOLT-4, > 100 µM (inactive). The GI50 with NCI-H226 is 0.23 µM (active); in the experiment on NCI-H460, > 100 µM (inactive); in the experiment on OVCAR-5, > 100 µM (inactive); in the experiment on SK-MEL-2, > 100 µM (inactive); in the experiment with SN12C, > 100 µM (inactive); with SNB-19, > 100 µM (inactive). Further, the GI50 in the experiment with SR and in the experiment with U-251 was > 100 µM (inactive) throughout.

Regarding `CCOc1cc2c(cc1O)CC[C@@H]1[C@@H]2CC[C@]2(C)C(OS(=O)OC3CC[C@@H]4[C@H]5CCc6cc(O)c(OCC)cc6[C@@H]5CC[C@@]34C)CC[C@@H]12` (stereo not given in full), the GI50 was 13.7 µM (inactive) with A498; 1.88 µM (inactive) in the experiment on ACHN; 1.81 µM (inactive) with BT-549; 0.466 µM (active) in the experiment on CCRF-CEM; 0.577 µM (active) with HCT-116; 4.59 µM (inactive) in the experiment on KM12. The GI50 is 0.752 µM (active) with LOX IMVI; 0.452 µM (active) with MCF7; 4.06 µM (inactive) in the experiment on MDA-MB-231; 0.0601 µM (active) in the experiment with MDA-MB-435; 0.117 µM (active) in the experiment with MDA-N; 1.14 µM (inactive) with MOLT-4. The GI50 was 2.49 µM (inactive) with NCI-H226; 0.581 µM (active) in the experiment on NCI-H460; 21.4 µM (inactive) with OVCAR-5; 0.92 µM (active) in the experiment on SK-MEL-2; 1.68 µM (inactive) in the experiment with SN12C; 2.64 µM (inactive) with SNB-19. Further, the GI50 in the experiment on SR was 0.182 µM (active); in the experiment with U-251 it was 0.33 µM (active).

As to `CC(C)=CCC/C(C)=C/CC/C(C)=C/CC/C(C)=C/CC/C(C)=C\CC/C(C)=C/CC/C(C)=C/CC/C(C)=C/Cc1cc(O)ccc1O`, the GI50 was 0.993 µM (active) in the experiment with A498; 4.75 µM (inactive) in the experiment on ACHN; 1.98 µM (inactive) in the experiment with BT-549; 0.955 µM (active) with CCRF-CEM; 0.561 µM (active) with HCT-116; 0.632 µM (active) in the experiment on KM12. In addition, the GI50 was 0.966 µM (active) in the experiment with LOX IMVI; 0.126 µM (active) in the experiment on MCF7; 20.6 µM (inactive) with MDA-MB-231; 0.39 µM (active) in the experiment on MDA-MB-435; 0.236 µM (active) in the experiment on MDA-N; 1.93 µM (inactive) in the experiment with MOLT-4. In addition, the GI50 was 2.02 µM (inactive) in the experiment on NCI-H226; 2.57 µM (inactive) in the experiment on NCI-H460; 9.27 µM (inactive) in the experiment with OVCAR-5; 0.682 µM (active) with SK-MEL-2; 5.31 µM (inactive) in the experiment on SN12C; 10 µM (inactive) in the experiment on SNB-19. Also, the GI50 was 0.43 µM (active) in the experiment on SR and 1.85 µM (inactive) in the experiment with U-251.
